# From patent US12171755B2, “PAPD5 inhibitors and methods of use thereof” (Children's Medical Center Corporation, priority 2017, dated 2024)
# Target: T1, PAPD5 (Homo sapiens, UniProt Q8NDF8)
# T1 construct: made in house
# Assay: High-throughput luminescence (KinaseGlo) RNA polyadenylation assay, ATP utilization by recombinant PAPD5
# Assay type: biochemical
# Settings: for Fold-change determined at compound concentration 33 μM / Fold-change determined at compound concentration 100 μM: Table 4 (entries of Table 5), ratio of luminescence with inhibitor to DMSO; for Fold-change determined at compound concentration 33 μM: 33 μM compound; for Fold-change determined at compound concentration 100 μM: higher = higher inhibition
# Summary of the method: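 Values are ratios of inhibitor to DMSO luminescence, so larger numbers mean less ATP consumed. Screening was run in duplicate with a 2 h room-temperature reaction of recombinant PAPD5, ATP and oligo RNA substrate plus compound. Residual ATP was detected after a 10 min KinaseGlo step.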
# T1 sequence (Q8NDF8 68-698 isoform Q8NDF8-5): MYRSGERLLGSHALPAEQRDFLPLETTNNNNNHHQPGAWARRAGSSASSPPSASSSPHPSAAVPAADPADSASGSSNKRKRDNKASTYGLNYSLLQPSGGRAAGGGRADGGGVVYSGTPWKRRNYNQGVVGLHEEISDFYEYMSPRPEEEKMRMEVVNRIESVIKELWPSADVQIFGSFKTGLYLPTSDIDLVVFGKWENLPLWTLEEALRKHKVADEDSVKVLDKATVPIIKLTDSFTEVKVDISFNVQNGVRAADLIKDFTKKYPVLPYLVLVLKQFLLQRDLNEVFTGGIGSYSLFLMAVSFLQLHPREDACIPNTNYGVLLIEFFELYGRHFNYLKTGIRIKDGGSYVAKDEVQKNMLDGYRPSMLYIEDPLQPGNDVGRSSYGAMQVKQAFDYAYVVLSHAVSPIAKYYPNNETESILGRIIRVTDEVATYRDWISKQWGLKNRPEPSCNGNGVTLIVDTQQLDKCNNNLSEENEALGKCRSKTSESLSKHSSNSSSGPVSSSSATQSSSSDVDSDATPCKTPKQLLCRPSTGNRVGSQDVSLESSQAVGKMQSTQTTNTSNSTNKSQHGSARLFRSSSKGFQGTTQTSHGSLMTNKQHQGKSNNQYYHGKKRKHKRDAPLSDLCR
smiles,measurement,setting,value
"O=C(Nc1c(-c2ccccc2)nc2ccccn12)c1ccc(Br)cc1 [Entry 191, 4-bromo-N-(2-phenylimidazo[1,2-a]pyridin-3-yl)benzamide]",Fold-change determined at compound concentration 33 μM,,1.225
same,Fold-change determined at compound concentration 100 μM,100 μM compound,1.296
"CCOCCCNC(=O)Cn1cc2c(n1)-c1c(oc(C(=O)N3CCCC3)c1C)CC2 [Entry 169, N-(3-ethoxypropyl)-2-[8-methyl-7-(pyrrolidine-1-carbonyl)-4,5-dihydrofuro[2,3-g]indazol-2-yl]acetamide]",Fold-change determined at compound concentration 33 μM,,1.455
same,Fold-change determined at compound concentration 100 μM,100 μM compound,1.879
"OCCN(CCO)c1nc(N2CCCCC2)c2nc(N(CCO)CCO)nc(N3CCCCC3)c2n1 [Entry 34, 2,2′,2″,2″′-((4,8-Di(piperidin-1-yl)pyrimido[5,4-d]pyrimidine-2,6-diyl)bis(azanetriyl))tetraethanol]",Fold-change determined at compound concentration 33 μM,,1.098
same,Fold-change determined at compound concentration 100 μM,100 μM compound,1.212
"COc1cc(NS(=O)(=O)c2ccc3oc(=O)c4ncn(C)c4c3c2)cc(OC)c1 [Entry 223, N-(3,5-dimethoxyphenyl)-1-methyl-4-oxochromeno[3,4-d]imidazole-8-sulfonamide]",Fold-change determined at compound concentration 33 μM,,1.207
same,Fold-change determined at compound concentration 100 μM,100 μM compound,1.254
"O=C(O)C1CC(=O)N(Cc2ccc3c(c2)OCO3)C1 (centres unmarked) [1-(1,3-benzodioxol-5-ylmethyl)-5-oxopyrrolidine-3-carboxylic acid]",fold change at 100 μM concentration in the assay,100 μM compound,3.9
"O=C(O)C1Nc2ccc(Cl)cc2C2C=CCC12 (centres unmarked) [Entry 98, 8-Chloro-3a,4,5,9b-tetrahydro-3H-cyclopenta[c]quinoline-4-carboxylic acid]",Fold-change determined at compound concentration 33 μM,,1.97
same,Fold-change determined at compound concentration 100 μM,100 μM compound,2.765
"O=S(=O)(Nc1ccc2nnc(-c3ccccc3)n2n1)c1ccc(Cl)cc1 [Entry 51, 4-chloro-N-(3-phenyl-[1,2,4]triazolo[4,3-b]pyridazin-6-yl)benzenesulfonamide]",Fold-change determined at compound concentration 33 μM,,1.242
same,Fold-change determined at compound concentration 100 μM,100 μM compound,1.825
"Cc1ccc(-c2nnc(Nc3ccc(OCC(N)=O)cc3)c3ccccc23)cc1S(=O)(=O)N(C)C [Entry 54, 2-[4-({4-[3-(dimethylsulfamoyl)-4-methylphenyl]phthalazin-1-yl}amino)phenoxy]acetamide]",Fold-change determined at compound concentration 33 μM,,1.324
same,Fold-change determined at compound concentration 100 μM,100 μM compound,1.562
"CC(C)Cn1cc(NC(=O)NCc2ccccc2)c2ccccc2c1=O [Entry 57a, 1-benzyl-3-[2-(2-methylpropyl)-1-oxoisoquinolin-4-yl]urea]",Fold-change determined at compound concentration 33 μM,,1.099
same,Fold-change determined at compound concentration 100 μM,100 μM compound,1.574
"Cc1ccccc1CSc1nc(=O)c2[nH]cnc2[nH]1 [Entry 163, 2-[(2-methylphenyl)methylsulfanyl]-3,7-dihydropurin-6-one]",Fold-change determined at compound concentration 33 μM,,1.109
same,Fold-change determined at compound concentration 100 μM,100 μM compound,1.287
"CCn1c(SCC(=O)O)nc2c(=O)n(C)c(=O)n(C)c21 [Entry 77, 2-(9-ethyl-1,3-dimethyl-2,6-dioxopurin-8-yl)sulfanylacetic acid]",Fold-change determined at compound concentration 33 μM,,1.142
same,Fold-change determined at compound concentration 100 μM,100 μM compound,1.419
"Cc1ccc(-c2cn3c(n2)sc2ccc(C(=O)NCCCN4CCCCCC4)cc23)cc1 [Entry 187, N-[3-(azepan-1-yl)propyl]-2-(4-methylphenyl)imidazo[2,1-b][1,3]benzothiazole-6-carboxamide]",Fold-change determined at compound concentration 33 μM,,1.108
same,Fold-change determined at compound concentration 100 μM,100 μM compound,1.262
